Assays:
[1] = biological target: T1, 26S proteasomes; assay: Deubiquitination of UbSic1 by epoxomicin-treated purified 26S proteasomes; assay type: biochemical, S. cerevisiae; settings: titration, epoxomicin-treated proteasomes
T1 construct: IC50, deubiquitination of UbSic1; other: titration, epoxomicin-treated proteasomes; other: 5 μM C92
Procedure: (§1) FIG. 2. […] (A) Degradation of UbSic1. Purified 26S proteasomes were preincubated in the presence or absence of test compounds. UbSic1 was then added, and degradation assayed as described (6). Py mock refers to the pyridine solvent in which C23 was dissolved which was marginally inhibitory, unlike the 50% DMSO vehicle used for other test compounds. (B) Deubiquitination of UbSic1. […] UbSic1 was then added, and deubiquitination was assayed as described (6). (C) Titration curve with varying concentrations of C92 to determine half-maximal inhibition of deubiquitination. (D) C92 inhibits binding of UbSic1 to 26S proteasomes. Purified 26S proteasomes immobilized on anti-Flag beads were incubated with UbSic1 in the presence or absence of C92 as described (6). Following binding, beads were washed and analyzed by immunoblotting with anti-Sic1 polyclonal serum. (E) Binding of UbSic1 to the polyUb binding proteins Rpn10 and Rad23 is inhibited by C92. Recombinant Gst-Rpn10 and Gst-Rad23 (1 μg each) were immobilized on glutathione sepharose beads and then incubated with UbSic1 in the presence or absence of C92. Following binding, beads were washed and analyzed by immunoblotting. (F) C92 interacts with multiUb chains. Equivalent amounts (5 μg) of purified Gst, Gst-fusion protein or multiUb chains were incubated with C92 or C1 before being loaded on a 5% native polyacryamide gel. Electrophoresis was performed as described (33). (G) C92 and C59 interact specifically with K48-linked Ub on native gels. Ub (16 μM), K48-linked diUb (8 μM), or tetraUb chains (8 μM) were preincubated with a two fold-molar excess (monoUb and diUb), or equivalent amounts (tetraUb) of test compounds before being resolved on native gels as in (G). Tetra K29Ub, K48Ub, and K63Ub refer to tetraubiquitin chains wherein the ubiquitins are linked via K29, K48, or K63.
FIG. 5. […] Assays were performed and evaluated as summarized in the legend to FIG. 2B. The metal chelating reagent phenanthroline is designated as “P”, and “Py” refers to the pyridine solvent that is used as the solvent for C23. (B) Titration curve for C59. (C) Inhibition of binding of ubiquitin conjugates to Gst-Rpn10 by C92 and C59, but not other compounds. The experiment was performed as described for FIG. 2E.
(§2) 26S proteasomes were purified from S. cerevisiae cells expressing a Flag-tagged proteasomal subunit (PRE1) essentially as described (28).
Reactions were processed as above.

[2] = biological target: T2, Gst-Rpn10 (Saccharomyces cerevisiae, UniProt P38886); assay: Binding of UbSic1 to Gst-Rpn10 on glutathione sepharose beads
T2 construct: made in house
T2 sequence (P38886 1-268): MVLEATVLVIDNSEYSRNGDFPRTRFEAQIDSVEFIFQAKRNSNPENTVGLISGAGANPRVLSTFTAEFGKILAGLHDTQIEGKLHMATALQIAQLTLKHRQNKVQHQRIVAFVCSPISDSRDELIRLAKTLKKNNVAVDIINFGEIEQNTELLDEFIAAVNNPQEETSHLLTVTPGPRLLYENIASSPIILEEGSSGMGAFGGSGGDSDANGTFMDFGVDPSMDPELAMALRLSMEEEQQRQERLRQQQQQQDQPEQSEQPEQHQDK
Procedure: as §1, with “(F) C92 interacts with multiUb chains. Equivalent amounts (5 μg) of purified Gst, Gst-fusion protein or multiUb chains were incubated with C92 or C1 before being loaded on a 5% native polyacryamide gel. Electrophoresis was performed as described (33). (G) C92 and C59 interact specifically with K48-linked Ub on native gels. Ub (16 μM), K48-linked diUb (8 μM), or tetraUb chains (8 μM) were preincubated with a two fold-molar excess (monoUb and diUb), or equivalent amounts (tetraUb) of test compounds before being resolved on native gels as in (G). Tetra K29Ub, K48Ub, and K63Ub refer to tetraubiquitin chains wherein the ubiquitins are linked via K29, K48, or K63.” left out
FIG. 5. […] Assays were performed and evaluated as summarized in the legend to FIG. 2B. […]
Recombinant Gst-Rpn10 and Gst-Rad23 were immobilized on glutathione sepharose beads. […] Aliquots were analyzed by immunoblotting.

[3] = biological target: T3, K29-linked ubiquitin chains (Homo sapiens, UniProt P0CG47); assay: Native gel mobility shift of ubiquitin chains; assay type: binding; settings: tetraUb, equivalent amount of compound
T3 construct: tetraubiquitin chains wherein the ubiquitins are linked via K29, K48, or K63
Procedure: as §1
(§3) Selective recognition of the multiubiquitin chain by the 26S proteasome constitutes the first step in UbSic1 degradation (9). Applicants therefore assayed the binding of UbSic1 to 26S proteasomes pre-treated with C92. […] Previous work by applicants has shown that multiubiquitin chain receptors Rad23 and Rpn10 serve a redundant role in sustaining UbSic1 degradation in vitro and in vivo (14). In the absence of the ubiquitin-binding activity of Rpn10, UbSic1 is not recruited, deubiquitinated, or degraded by purified 26S proteasomes. Thus, to further establish the mechanism by which C92 inhibited binding of UbSic1 conjugates to the proteasome, applicants tested whether C92 could interfere with binding of UbSic1 to recombinant Rpn10 and Rad23. […] To distinguish whether C92 inhibited proteolysis by binding to proteasome receptor proteins or to the Ub chain on Sic 1, applicants exploited the negative charge of C92 to determine whether compound binding induced a mobility shift of the target proteins on native gels. C92 was pre-incubated with recombinant Rpn10, Rad23, or a mixture of Ub chains containing 2-7 Ub molecules. […] Remarkably, the binding of C92 and C59 to ubiquitin chains was exquisitely linkage specific. Ubiquitin molecules can be linked to each other in vivo through different internal lysines, including K29, K48, and K63(19). The K48-linked chain is the principal targeting signal in proteolysis whereas K63-linked chains are implicated in enzyme regulation; no physiological function for K29-linked chains has yet been discovered (20).

[4] = biological target: T4, K48-linked ubiquitin chains (Homo sapiens, UniProt P0CG47); assay: Native gel mobility shift of ubiquitin chains; assay type: binding; settings: for native gel mobility of K48-linked ubiquitin chains: diUb with two fold-molar excess, tetraUb with equivalent amount of compound
T4 construct: a mixture of Ub chains containing 2-7 Ub molecules
Procedure: as §1, §3

[5] = biological target: T5, K63-linked ubiquitin chains (Homo sapiens, UniProt P0CG47); assay: Native gel mobility shift of ubiquitin chains; assay type: binding; settings: tetraUb, equivalent amount of compound
T5 construct: tetraubiquitin chains wherein the ubiquitins are linked via K29, K48, or K63
Procedure: as §1, §3

[6] = biological target: T6, 26S proteasomes (Saccharomyces cerevisiae, UniProt P38886+P43588); assay: 26S proteasome integrity on native gel (Coomassie Blue); assay type: biochemical; settings: concentrations that inhibit ubiquitin-dependent proteolysis
T6 construct: 26S proteasomes were purified from S. cerevisiae cells expressing a Flag-tagged proteasomal subunit (PRE1); made in house; host or cells: S. cerevisiae cells expressing Flag-tagged PRE1
Procedure: FIG. 6. […] (A) Purified 26S proteasomes were preincubated with test compounds before being resolved on a native gel. Following electrophoresis, the gel was stained with Coomassie Blue. […] Same as (A), except that following electrophoresis, the gel was incubated with fluorescent substrate to determine peptidase activity, which was visualized using a UV transilluminator (9). […] (C) Untreated 26S proteasomes were resolved on a native gel. Following electrophoresis, the gel was incubated with the peptidase substrate in the presence of ubistatin.
as §2

[7] = biological target: T2, Gst-Rpn10; assay: Native gel mobility shift of receptor protein; assay type: binding
Procedure: as §1, with “Electrophoresis was performed as described (33). (G) C92 and C59 interact specifically with K48-linked Ub on native gels. Ub (16 μM), K48-linked diUb (8 μM), or tetraUb chains (8 μM) were preincubated with a two fold-molar excess (monoUb and diUb), or equivalent amounts (tetraUb) of test compounds before being resolved on native gels as in (G). Tetra K29Ub, K48Ub, and K63Ub refer to tetraubiquitin chains wherein the ubiquitins are linked via K29, K48, or K63.” left out

T6 sequence (P43588 whole entry, one chain of several): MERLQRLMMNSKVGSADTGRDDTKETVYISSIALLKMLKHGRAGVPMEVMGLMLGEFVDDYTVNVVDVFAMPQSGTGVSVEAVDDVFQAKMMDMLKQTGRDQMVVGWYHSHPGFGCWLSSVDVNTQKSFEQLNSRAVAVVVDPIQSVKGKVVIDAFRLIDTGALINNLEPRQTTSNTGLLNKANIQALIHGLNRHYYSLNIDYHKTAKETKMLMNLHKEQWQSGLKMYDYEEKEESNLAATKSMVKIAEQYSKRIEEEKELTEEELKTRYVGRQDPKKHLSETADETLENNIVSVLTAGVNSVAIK

Row | SMILES | IC50 [1] [nM] | inhibition of binding of UbSic1 to Rpn10 [2] | native gel mobility of K29-linked chains [3] | native gel mobility of K48-linked ubiquitin chains [4] | native gel mobility of K63-linked chains [5] | effect on 26S proteasome integrity / assembly [6] | native gel mobility of multiUb chains ([4]; mixture of Ub chains containing 2-7 Ub molecules) | native gel mobility of Gst-Rpn10 [7]
1 | O=S(=O)(O)c1ccc2cc3c(cc2c1)NN(c1ccc(/C=C/c2ccc(N4Nc5cc6ccc(S(=O)(=O)O)cc6cc5N4)cc2S(=O)(=O)O)c(S(=O)(=O)O)c1)N3 [Compound 59] | 1000 | abrogated binding | little or no effect | efficiently shifted | little or no effect | without affecting | – | –
2 | O=C(Nc1ccc(/C=C/c2ccc(NC(=O)c3cc(S(=O)(=O)O)c4cccnc4c3O)cc2S(=O)(=O)O)c(S(=O)(=O)O)c1)c1cc(S(=O)(=O)O)c2cccnc2c1O [Compound 92] | ~400 | abolished binding | little or no effect | efficiently shifted | little or no effect | without affecting | bound Ub chains | not Gst-Rpn10 or Gst-Rad23, was altered
